In US5442065A, “Synthesis of tetrahydroquinoline enediyne core analogs of dynemicin” (Board of Regents, The University of Texas System, priority 1993, dated 1995):

B1: neocarzinostatin: clinically tested compound; positive reference compound (protein, UniProt P0A3R9 35-147, looked up)
Neocarzinostatin: AAPTATVTPSSGLSDGTVVKVAGAGLQAGTAYDVGQCAWVDTGVLACNPADFSSVTADANGSASTSLTVRRSFEGFLFDGTRWGTVDCTTAACQVGLSDAAGNGPEGVAISFN
modifications: enediyne chromophore

System: M109 tumor cells
Assay: M109 solid tumor assay, five injections every two days (compared with neocarzinostatin and esperamicin A1)
Type: in vivo, female mice
Conditions: for T/C value: reference compounds, dose not given; for lifespan and tumor growth delay (in words): standard compounds, solid tumor
Description: This assay involves development of a solid tumor in a mouse by injection of M109 tumor cells under the skin of the animal. Solid tumors, typically elliptical in shape, rapidly develop on the flank of the mouse at the site of injection. Progress of the tumor is determined by its size which is measured across each axis of the elongated mass. Straightforward computations of tumor volume combined with an assumed density of 1 g per cc yields a weight estimate which is accepted as an indication of the progress of tumor growth. Increase in lifespan (T/C values) of the animal and delay in tumor growth (T-C) to reach a predetermined size (typically measured as weight of the tumor) are generally accepted by those of skill in the art as endpoint parameters. […] In the particular M109 assay described and used to test the novel dynemicin analogs, the median time to establish a baseline tumor burden (arbitrarily set at 1 g tumor) was 4 days.
A standard M109 solid tumor assay was set up to compare compound 5582 and 4229 with neocarzinostatin and esperamicin A1. Female mice were injected subcutaneously with 0.1 mL of a 0.2% brei of M109 tumor cells, prepared from 2 g tumor per 100 mL PBS (phosphate buffered saline).
In another test, compounds 5582 and 4229 were evaluated in mice implanted with M109 on a 5 injection per day every two days schedule beginning on day 1 post implant and compared with SC tumored mice.

Molecule	T/C value [days]	lifespan and tumor growth delay (in words)
esperamicin A1	11	increased lifespan and delay in tumor growth
B1	19.3	increased lifespan and delay in tumor growth
